Test results reported in patent publication US7329677B2, “Imidazo(4,5-b)pyridine-derivatives as inducible no-synthase inhibitors” (Altana Pharma AG, priority 2003, dated 2008).
Counter-ions that a name gives are not always drawn.

Assays:
[1] = target: T1, human inducible NO-synthase (Homo sapiens, UniProt P35228); experiment: Measurement of inducible NO-synthase activity ([3H]arginine conversion); assay type: biochemical; conditions: crude cytosolic fraction containing human inducible NO-synthase; 0.1 μM arginine; 45 to 60 min at 37° C.; read-out: Inhibition of iNOS activity [measured as −logIC50 (mol/l)] (converted)
T1 construct: host or cells: crude cytosolic fraction
Procedure: The assay is performed in 96-well microtiter F-plates (Greiner, Frickenhausen, FRG) in a total volume of 100 μl in the presence of 100 nM calmodulin, 226 μM CaCl2, 477 μM MgCl2, 5 μM flavin-adenine-dinucleotide (FAD), 5 μM flavin mononucleotide (FMN), 0.1 mM NADPH, 7 mM glutathione, 10 μM BH4 and 100 mM HEPES pH 7.2. Arginine concentrations are 0.1 μM for enzyme inhibition experiments. 150000 dpm of [^3H]arginine are added to the assay mixture. Enzyme reaction is started by the addition of 4 μg of a crude cytosolic fraction containing human inducible NO-synthase and the reaction mixture is incubated for 45 to 60 min at 37° C. Enzyme reaction is stopped by adding 10 μl of 2M MESbuffer pH 5,0. […] of the incubation mixture are transferred into a MADP N65 filtration microtiter plate (Millipore, Eschborn, FRG) containing already 50 μl of AG-50W-X8 cation exchange resin (Biorad, München, FRG). […] Scintillation plates are counted in a szintillation counter.
For the measurement of inducible NO-synthaseinhibiting potencies of compounds increasing concentrations of inhibitors were included into the incubation mixture. IC50-values were calculated from the percent inhibition at given concentrations by nonlinear least square fitting.

melting point | IC50 [1] | SMILES
61 to 64 °C | – | COc1ccnc(CC(C)c2nc3cccnc3[nH]2)c1 (racemic) (as salt: hydrochloride) [Example 1, (R,S)-2-[3-(4-Methoxypyridin-2-yl)prop-2-yl]-3H-imidazo[4,5-b]pyridine hydrochloride]
– | 70.8 nM | COc1ccnc(CC(C)c2nc3cccnc3[nH]2)c1 (racemic) [Example 1, (R,S)-2-[3-(4-Methoxypyridin-2-yl)prop-2-yl]-3H-imidazo[4,5-b]pyridine hydrochloride]
